In patent US4880817A, “O-functionalized derivatives of substituted isoquinolin-3-ols having cardiotonic and/or phosphodiesterase fraction III inhibiting properties and/or renal vasodilating properties” (Ortho Pharmaceutical Corporation, priority 1987, dated 1989):
Like-named read-outs stand apart in the source and are kept apart here. Each block holds one compound with its values, some of them ahead of it.

Experiments:
platelet aggregation = conditions: reported in U.S. Pat. No. 3,870,721; cited from earlier work
adult mongrel dogs [1] = assay: Renal vasodilating activity in anesthetized dogs; type: in vivo, mongrel dog; conditions: Canis lupus familiaris
Method: Goldberg et al., J. Pharmacol. Exp. Ther., 163, 188 (1968), performed an investigation of the structural requirements for dopamine-like renal vasodilation of phenethylamines and apomorphine. The following procedure is a variation of the assay described in that report.
Adult mongrel dogs were anesthetized and surgically prepared for electromagnetic measurement of renal artery blood flow. A carotid artery was cannulated for measuring arterial blood pressure and drugs were administered intravenously or intraarterially (via the renal artery). Heart rate was monitored with a cardiotachometer. Renal vascular resistance was calculated as the ratio of mean arterial blood pressure to renal artery blood flow. Dopamine was infused intravenously at 3 μg/kg/min for ten minutes (at an infusion rate of about 1 ml/min) to determine responsiveness of each dog to renal dopamine receptor stimulation. Cumulative dose-response data were obtained by infusing a compound of this invention at progressively increasing (usually three-fold) infusion rates, each dose being infused for five minutes. The maximum percent change from pre-drug control in renal artery blood flow (or in renal vascular resistance) was determined for each infusion dose.
RBF, RVR, MABP, and HR values are percent changes in renal blood flow, renal vascular resistance, mean arterial blood pressure, and heart rate, respectively, relative to control values.

[2] = target: T1, Phosphodiesterase Fraction III (Canis lupus familiaris, UniProt A0A8I3NYE0); assay: Inhibition of phosphodiesterase fraction III activity; type: biochemical, canine
T1 construct: The fraction III enzyme was isolated as an isomzyme from the crude canine heart homogenate; from tissue; host or cells: canine heart (crude homogenate, ion exchange chromatography)
T1 sequence (A0A8I3NYE0 1-1135): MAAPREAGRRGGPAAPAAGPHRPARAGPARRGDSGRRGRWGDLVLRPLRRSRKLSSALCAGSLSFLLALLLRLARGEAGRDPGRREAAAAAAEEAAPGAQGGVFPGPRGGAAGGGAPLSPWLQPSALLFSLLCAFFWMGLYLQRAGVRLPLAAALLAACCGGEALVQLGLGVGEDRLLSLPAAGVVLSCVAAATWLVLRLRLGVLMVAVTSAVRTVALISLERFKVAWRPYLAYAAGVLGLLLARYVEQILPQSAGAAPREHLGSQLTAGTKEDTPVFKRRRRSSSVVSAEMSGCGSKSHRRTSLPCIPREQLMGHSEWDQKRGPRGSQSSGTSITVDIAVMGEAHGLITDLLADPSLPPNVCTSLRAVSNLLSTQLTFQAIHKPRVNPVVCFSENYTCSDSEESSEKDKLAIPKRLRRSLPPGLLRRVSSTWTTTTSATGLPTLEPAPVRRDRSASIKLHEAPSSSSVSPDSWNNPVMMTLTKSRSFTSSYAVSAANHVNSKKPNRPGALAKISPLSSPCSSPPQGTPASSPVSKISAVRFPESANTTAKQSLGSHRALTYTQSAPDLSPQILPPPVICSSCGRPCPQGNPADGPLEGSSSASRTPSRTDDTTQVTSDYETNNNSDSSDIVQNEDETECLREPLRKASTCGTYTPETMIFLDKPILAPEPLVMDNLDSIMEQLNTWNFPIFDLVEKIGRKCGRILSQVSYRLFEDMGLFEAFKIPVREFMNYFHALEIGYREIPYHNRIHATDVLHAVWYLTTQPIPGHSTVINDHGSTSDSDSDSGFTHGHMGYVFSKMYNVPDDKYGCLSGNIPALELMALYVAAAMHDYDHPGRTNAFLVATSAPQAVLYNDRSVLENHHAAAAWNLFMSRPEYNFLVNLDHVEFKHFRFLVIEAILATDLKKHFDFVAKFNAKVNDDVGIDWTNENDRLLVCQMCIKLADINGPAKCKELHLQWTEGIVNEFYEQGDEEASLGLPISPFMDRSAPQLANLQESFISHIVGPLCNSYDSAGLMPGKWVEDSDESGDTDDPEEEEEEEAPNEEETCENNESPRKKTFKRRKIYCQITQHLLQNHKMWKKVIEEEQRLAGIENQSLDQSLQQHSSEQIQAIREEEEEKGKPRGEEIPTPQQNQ
Method: Thompson et al. described a cyclic nucleotide phosphodiesterase assay in Advances in Cyclic Nucleotide Research, Brooker et al., eds., 10, 69-92 (1979). The following procedure is based on that published assay and measures the ability of compounds to inhibit cyclic nucleotide phosphodiesterase which is an enzyme that converts either cyclic AMP or cyclic GMP to the noncyclized AMP or GMP, respectively.
Compounds were tested at various concentrations in the presence of cyclic AMP (0.10-1.0 μM containing 0.2 microCuries ^3 H-cyclic AMP), cyclic nucleotide phosphodiesterase, and 0.05M Tris-Cl buffer (pH 7.4, containing 5 mM magnesium chloride). After a specified time, the reaction was stopped by heating to 100° C. for 1 minute. After cooling, 0.10 ml of a solution containing snake venom (1 mg/ml) was added, and the reaction was allowed to proceed for 30 min. Termination of this reaction was accomplished by the addition of 1.0 ml of 33 percent DOWEX AGl×8 resin slurry (Dow Chemical Co., Midland, MI) to separate the product from the unconverted substrate. An aliquot was removed from the supernatant and analyzed by liquid scintillation spectrometry.
The fraction III enzyme was isolated as an isomzyme from the crude canine heart homogenate by ion exchange chromatography. The enzyme activity was designated fraction III since it is the third and last phosphodiesterase activity to be eluted from the chromatographic column. The fraction III enzyme has a relatively high affinity and specificity for the cyclic AMP.
Data are presented as the IC50 which is the concentration (in micromoles) of a compound that was required to inhibit 50 percent of the cyclic nucleotide phosphodiesterase activity.

adult mongrel dogs [3] = assay: Acute in vivo cardiotonic activity in anesthetized dogs; parameters: species or system mongrel dog; conditions: Canis lupus familiaris, dose 1.87 mpk, iv, relative to controls
Method: The acute in vivo cardiotonic activity of compounds prepared according to the present invention was determined according to a modification of the procedure described by Alousi et al., Circ.
In particular, adult mongrel dogs were anesthetized with sodium pentobarbital and were artificially respired. Arterial pressure was monitored via a femoral artery, and the pulse pressure was used to trigger a cardiotachometer for heart rate. Left ventricular pressure was determined with a Millar catheter, and dP/dT (the change in ventricular pressure with time) was derived. Cardiac output was determined by measuring ascending aortic blood flow with an electromagnetic flow probe, and myocardial contractile force was measured with a Walton Brodie strain gauge sutured to the right ventricle. Lead II EKG was also recorded.
A standard dose (10 μg/kg/min) of dopamine was administered to assess myocardial responsiveness.
Compounds of the invention were administered by intravenous infusion and the effects on cardiovascular parameters were determined.

[4] = dose 6.2 mpk, relative to controls, read-out: HR: percent change in heart rate
[5] = dose 6.2 mpk, relative to controls, read-out: MABP: percent change in mean arterial blood pressure
[6] = dose 6.2 mpk, relative to controls, read-out: RBF: percent change in renal blood flow
[7] = dose 6.2 mpk, relative to controls, read-out: RVR: percent change in renal vascular resistance
[8] = cyclic AMP 0.10-1.0 μM, pH 7.4, enzyme from canine heart homogenate, read-out: IC50
[9] = read-out: HR: percent change in heart rate, dose 6.2 mpk, relative to controls
[10] = read-out: MABP: percent change in mean arterial blood pressure, dose 6.2 mpk, relative to controls
[11] = read-out: RBF: percent change in renal blood flow, dose 6.2 mpk, relative to controls
[12] = read-out: RVR: percent change in renal vascular resistance, dose 6.2 mpk, relative to controls
[13] = read-out: CF: percent change in cardiac force
[14] = read-out: HR: percent change in heart rate
[15] = read-out: MABP: percent change in mean arterial blood pressure
[16] = read-out: dP/dT: maximum percent change in left ventricular pressure with time
[17] = read-out: HR: percent change in heart rate, dose 1.2 mpk, relative to controls
[18] = read-out: MABP: percent change in mean arterial blood pressure, dose 1.2 mpk, relative to controls
[19] = read-out: RBF: percent change in renal blood flow, dose 1.2 mpk, relative to controls
[20] = read-out: RVR: percent change in renal vascular resistance, dose 1.2 mpk, relative to controls

Compound: CC(=O)NC1C(=O)NC(=O)c2ccccc21 (centres unmarked) [4-acetamido-1,2,3,4-tetrahydro 1,3-isoquinolinedione]
inhibition of platelet aggregation (platelet aggregation): inhibit platelet aggregation

Compound: CCOc1cc2c(C)nc(OC(C)=O)c([N+](=O)[O-])c2cc1OC [Cmpd 3]
change in vivo at 6.2 mg/kg (adult mongrel dogs [1]; [4]): 2%
change in vivo at 6.2 mg/kg (adult mongrel dogs [1]; [5]): -6%
change in vivo at 6.2 mg/kg (adult mongrel dogs [1]; [6]): 61%
change in vivo at 6.2 mg/kg (adult mongrel dogs [1]; [7]): -41%
IC50 [2, 8]: 6 µM

Compound: CCOc1cc2c(C)nc(OC(=O)C(C)(C)C)c([N+](=O)[O-])c2cc1OC [Cmpd 9]
change in vivo at 6.2 mg/kg (adult mongrel dogs [1]; [4]): 0%
change in vivo at 6.2 mg/kg (adult mongrel dogs [1]; [5]): -26%
change in vivo at 6.2 mg/kg (adult mongrel dogs [1]; [6]): 43%
change in vivo at 6.2 mg/kg (adult mongrel dogs [1]; [7]): -48%
IC50 [2, 8]: 100 µM

Compound: CCOc1cc2c(C)nc(OC(=O)N(C)C)c([N+](=O)[O-])c2cc1OC [Cmpd 10]
change in vivo at 6.2 mg/kg (adult mongrel dogs [1]; [9]): 10%
change in vivo at 6.2 mg/kg (adult mongrel dogs [1]; [10]): -12%
change in vivo at 6.2 mg/kg (adult mongrel dogs [1]; [11]): 46%
change in vivo at 6.2 mg/kg (adult mongrel dogs [1]; [12]): -39%
IC50 [2]: 45 µM
change in vivo at 1.87 mg/kg (adult mongrel dogs [3]; [13]): 70%
change in vivo at 1.87 mg/kg (adult mongrel dogs [3]; [14]): -6%
change in vivo at 1.87 mg/kg (adult mongrel dogs [3]; [15]): 18%
change in vivo at 1.87 mg/kg (adult mongrel dogs [3]; [16]): 91%

Compound: CCOc1cc2c(C)nc(OC(=O)c3ccc(OC)cc3)c([N+](=O)[O-])c2cc1OC [Cmpd 11]
IC50 [2, 8]: 30 µM
change in vivo at 1.87 mg/kg (adult mongrel dogs [3]; [13]): 126%
change in vivo at 1.87 mg/kg (adult mongrel dogs [3]; [14]): 25%
change in vivo at 1.87 mg/kg (adult mongrel dogs [3]; [15]): -17%
change in vivo at 1.87 mg/kg (adult mongrel dogs [3]; [16]): 47%

Compound: COC(=O)c1c(OC(C)C)nc(C)c2cc(OC)c(OC)cc12 [Cmpd 18]
IC50 [2, 8]: 225 µM

Compound: CCOc1nc(C)c2cc(OC)c(OC)cc2c1C(=O)OC [Cmpd 19, 4-Carbomethoxy-3-ethoxy-6,7-dimethoxy-1-methylisoquinoline]
IC50 [2, 8]: 42 µM

Compound: COc1cc2c(C)nc(OC(=O)N(c3ccccc3)c3ccccc3)c([N+](=O)[O-])c2cc1OC [Cmpd 34]
change in vivo at 6.2 mg/kg (adult mongrel dogs [1]; [9]): 21%
change in vivo at 6.2 mg/kg (adult mongrel dogs [1]; [10]): -10%
change in vivo at 6.2 mg/kg (adult mongrel dogs [1]; [11]): 37%
change in vivo at 6.2 mg/kg (adult mongrel dogs [1]; [12]): -35%
IC50 [2]: 35 µM

Compound: CCOc1cc2c(C)nc(OC(=O)N(CC)CC)c(N)c2cc1OC [Cmpd 44]
IC50 [2, 8]: 180 µM

Compound: COc1cc2c(C)nc(OC(=O)N3CCNCC3)c([N+](=O)[O-])c2cc1OC [Cmpd 70, 6,7-Dimethoxy-1-methyl-4-nitro-3-(1-piperazinyl)carbonyloxyisoquinoline]
change in vivo at 1.2 mg/kg (adult mongrel dogs [1]; [17]): 20%
change in vivo at 1.2 mg/kg (adult mongrel dogs [1]; [18]): -1%
change in vivo at 1.2 mg/kg (adult mongrel dogs [1]; [19]): 26%
change in vivo at 1.2 mg/kg (adult mongrel dogs [1]; [20]): -19%
IC50 [2]: 78 µM

Compound: CCOc1cc2c(C)nc(OC(=O)N3CCNCC3)c([N+](=O)[O-])c2cc1OC [Cmpd 71]
IC50 [2]: 22 µM

Compound: C=CCNC(=O)Nc1c(OC(=O)N(CC)CC)nc(C)c2cc(OCC)c(OC)cc12 [Cmpd 74]
change in vivo at 1.2 mg/kg (adult mongrel dogs [1]; [17]): -16%
change in vivo at 1.2 mg/kg (adult mongrel dogs [1]; [18]): -2%
change in vivo at 1.2 mg/kg (adult mongrel dogs [1]; [19]): 15%
change in vivo at 1.2 mg/kg (adult mongrel dogs [1]; [20]): -14%
IC50 [2]: 115 µM

Now from value to compound, other results behind:

IC50 [2, 8]: 14 µM
Compound: CCOc1cc2c([N+](=O)[O-])c(OC(C)=O)nc(C)c2cc1OC [Cmpd 21]
change in vivo at 6.2 mg/kg (adult mongrel dogs [1]; [4]): 38%
change in vivo at 6.2 mg/kg (adult mongrel dogs [1]; [5]): 3%
change in vivo at 6.2 mg/kg (adult mongrel dogs [1]; [6]): 40%
change in vivo at 6.2 mg/kg (adult mongrel dogs [1]; [7]): -25%

IC50 [2, 8]: 3.5 µM
Compound: CCCCOc1cc2c(C)nc(OC(C)=O)c([N+](=O)[O-])c2cc1OC [Cmpd 22]
change in vivo at 6.2 mg/kg (adult mongrel dogs [1]; [4]): 25%
change in vivo at 6.2 mg/kg (adult mongrel dogs [1]; [5]): -12%
change in vivo at 6.2 mg/kg (adult mongrel dogs [1]; [6]): 11%
change in vivo at 6.2 mg/kg (adult mongrel dogs [1]; [7]): -22%
change in vivo at 1.87 mg/kg (adult mongrel dogs [3]; [13]): 43%
change in vivo at 1.87 mg/kg (adult mongrel dogs [3]; [14]): 2%
change in vivo at 1.87 mg/kg (adult mongrel dogs [3]; [15]): -23%
change in vivo at 1.87 mg/kg (adult mongrel dogs [3]; [16]): 68%

IC50 [2, 8]: 20.5 µM
Compound: CCOc1cc2c(C)nc(OS(=O)(=O)N(C)C)c([N+](=O)[O-])c2cc1OC [Cmpd 26]
change in vivo at 6.2 mg/kg (adult mongrel dogs [1]; [4]): 0%
change in vivo at 6.2 mg/kg (adult mongrel dogs [1]; [5]): 0%
change in vivo at 6.2 mg/kg (adult mongrel dogs [1]; [6]): 7%
change in vivo at 6.2 mg/kg (adult mongrel dogs [1]; [7]): -8%

IC50 [2, 8]: 34 µM
Compound: COc1cc2c(C)nc(OS(=O)(=O)N(C)C)c(N)c2cc1OC [Cmpd 43]

IC50 [2, 8]: 185 µM
Compound: COc1cc2c(C)nc(OS(=O)(=O)N(C)C)c(N)c2cc1OC [Cmpd 63]
